Measurements taken from ChEMBL document CHEMBL3045786, “Insect antifeedant activity of tetranortriterpenoids from the Rutales. A perusal of structural relations” (2002).

Each molecule was assayed on Spodoptera litura (assay: Antifeedant activity against larvae of Spodoptera litura in castor leaves relative to control).
Assay type: functional
Molecule `COC(=O)C[C@H]1[C@]2(C)C3=C(C)[C@H](c4ccoc4)C[C@H]3O[C@@H]2[C@@H]2OC[C@]3(C)[C@H](O)C[C@H](OC(=O)C=C(C)C)[C@@]1(C)[C@@H]23` has an AFI of 52.1%.

The molecules below were run on Spodoptera litura (assay: Feeding index against larvae of Spodoptera litura in castor leaves =).
With `CC(=O)O[C@@H]1[C@H](O)[C@H]2C(C)(C)C(=O)C=C[C@]2(C)[C@H]2CC[C@]3(C)C(=CC[C@H]3c3ccoc3)[C@]12C` [NIMONOL] the PFI was 47.3%. `C/C=C(\C)C(=O)O[C@H]1C[C@@H](OC(C)=O)[C@@]2(C)CO[C@H]3[C@H]4O[C@@H]5CC(C6=CC(=O)OC6O)=C(C)C5[C@@]4(C)[C@H](CC(=O)OC)[C@]1(C)[C@@H]32` (some centres undefined) [SALANNIN PP1] was tested, and the PFI was 29.1%. For `C/C=C(\C)C(=O)O[C@H]1C[C@@H](OC(C)=O)[C@@]2(C)CO[C@H]3[C@H]4O[C@@H]5C[C@@H](C6=CC(=O)OC6O)C(C)=C5[C@@]4(C)[C@H](CC(=O)OC)[C@]1(C)[C@@H]32` (some centres undefined) [SALANNIN PP], the PFI was 25.1%. For `C/C=C(/C)C(=O)O[C@H]1C[C@@H](OC(C)=O)[C@@]2(C)CO[C@H]3[C@H]4O[C@@H]5C[C@@H](c6ccoc6)C(C)=C5[C@@]4(C)[C@H](CC(=O)OC)[C@]1(C)[C@@H]32` [SALANNIN], the PFI was 36.3%. `C/C=C(\C)C(=O)O[C@H]1C[C@@H](OC(C)=O)[C@@]2(C)CO[C@H]3[C@H]4O[C@@H]5C[C@@H](C6=CCOC6=O)C(C)=C5[C@@]4(C)[C@H](CC(=O)OC)[C@]1(C)[C@@H]32` [SALANNOBUTYROLACTONE] gave a PFI of 46.3%. `C/C=C(\C)C(=O)O[C@H]1C[C@@H](OC(C)=O)[C@@]2(C)CO[C@H]3[C@H]4O[C@@H]5C[C@@H](C6=CC(O)OC6=O)C(C)=C5[C@@]4(C)[C@H](CC(=O)OC)[C@]1(C)[C@@H]32` (some centres undefined) [SALANNOLIDE] gave a PFI of 26.3%. Molecule `C/C=C(\C)C(=O)O[C@@H]1[C@@H]2C=C3[C@@H]4CC(=O)O[C@@H](C5=CC(O)OC5=O)[C@]4(C)CC[C@@H]3[C@@](C)(C2=O)[C@@H]([C@@H](O)C(=O)OC)C1(C)C` (some centres undefined) [SWIETENINE PP] has a PFI of 40.2%. Molecule `C/C=C(\C)C(=O)O[C@@H]1[C@@H]2C=C3[C@@H]4CC(=O)O[C@@H](c5ccoc5)[C@]4(C)CC[C@@H]3[C@@](C)(C2=O)[C@@H]([C@@H](O)C(=O)OC)C1(C)C` [SWIETENINE] has a PFI of 49.1%.
